Source: patent US10889554B2, “Excimer forming compounds” (THE GOVERNING COUNCIL OF THE UNIVERSITY OF TORONTO, priority 2013, dated 2021)

Columns and labels:
[1] = test system: MRC-9 and A549 cell lines; test: Fixed cell imaging: monitoring increase in proximal phosphorylation; format: cell-based, human; details: pre-treatment before fixation
[2] = Titration of compound with GaCl3 at different pH (fluorescence at 376 nm); format: binding; details: 40 μM compound
Description: GaCl3 was titrated into 40 μM (constant) of compound 2 from 500 to 0.25 μM at pH 4.5 (50 mM NaOAc) and 7.5 (HEPES). Fluorescence intensity was measured at 376 and 476 nm at 350 nm excitation. […] At pH 4.5 saturation is observed at 10 μM of GaCl3.
40 μM of compound 3 was titrated with GaCl3 (250-0.12 μM) and the change in emission at 376 nm was recorded upon excitation at 350 nm as shown in FIG. 48.

β-casein = target: T1, β-casein (Bos taurus, UniProt P02666); test: On-gel detection of proximally phosphorylated protein using GaCl3 complexes; format: binding
T1 construct: purchased Sigma Aldrich C6905-250MG
T1 sequence (P02666 16-224): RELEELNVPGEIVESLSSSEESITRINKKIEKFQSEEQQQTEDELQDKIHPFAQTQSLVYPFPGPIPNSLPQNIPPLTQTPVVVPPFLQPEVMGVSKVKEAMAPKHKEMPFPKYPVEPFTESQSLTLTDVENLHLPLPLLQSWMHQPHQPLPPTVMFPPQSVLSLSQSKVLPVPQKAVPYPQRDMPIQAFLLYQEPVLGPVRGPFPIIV
Description: (§1) Compound 8 was dissolved in 50 mM NaOAc buffer, pH 4.5, 50 mM NaCl, 10% DMSO and combined with 80, 160 or and 240 μM GaCl3 solutions. Each gel contained 4 lanes with equal amounts of BSA, ovalbumin (Ova), β-casein (β-cas) and lysozyme (Lyso) in each lane (left to right: 1, 0.5, 0.25 and 0.125 μg per protein per lane) (see FIG. 37). Gels were stained for 1 h with the sensor solution. Gels were first de-stained with 50 mM NaOAc buffer pH 4.5 for 2 h and then with 50 mM NaOAc buffer pH 4.0 20% acetonitrile for 40 h.
(§2) Compound 8 was dissolved in 100 mM NaOAc buffer, pH 4.5, 150 mM NaCl, 20% propylene glycol and combined with 10 and 15 μM GaCl3 solutions. Each gel contained 4 lanes with equal amounts of BSA, ovalbumin (Ova), β-casein (β-cas) and lysozyme (Lyso) in each lane (FIG. 40) left to right: 1, 0.5, 0.25 and 0.125 μg per protein per lane). Gels were stained for 1.5 h with the sensor solution. Destaining was performed for variable time (specified at the top) with 50 mM NaOAc, pH 4.0, 20% acetonitrile. Gels were rinsed with MiliQ water for 5 min prior to imaging. Images were acquired using ChemiDoc MP, using a 530 nm emission filter and UV trans excitation.
as §1, with “Compound 2” for “Compound 8”, “lane) (FIG. 42).” for “lane) (see FIG. 37).”, “h. […] However with the increased destaining time the intensity of β-casein band relative to other proteins was increasing, resulting in a 6.7-fold higher intensity over the distally phosphorylated protein ovalbumin. Lane containing 1 μg of each protein was analyzed (FIG. 43).” for “h.”
as §2, with “2” for “8”, “45)” for “40)”, “acetonitrile (see FIGS. 45 and 46).” for “acetonitrile.”

[3] = test system: proximally phosphorylated peptides; test: Detection of proximally phosphorylated peptides in aqueous solution (384 well plate, emission 476 nm); format: binding
Description: In one example 40 μM of compound 1 pre-metallated with zinc(II) triflate (referred to as “Zn^2+ pre-metallation” in FIG. 13; procedure described in example) was titrated with 80-0.04 μM of pY and pYpY peptides in 50 mM HEPES pH 7.5, 5% DMSO. In another example, 40 μM of compound 1 was dissolved in 50 mM HEPES pH 7.5, 5% DMSO, which contained 40 μM of zinc(II) triflate (referred to as “in situ Zn^2+ metallation” in FIG. 13) and was titrated with 80-0.04 μM of pY and pYpY peptides. Fluorescence measurements were performed as described in Example 2.
(§3) Various conditions for the detection of proximally phosphorylated peptides and proteins in aqueous solution are shown in Table 1. For the screens, analytes (peptides) were dissolved in a specific buffer at various concentrations (normally 100 μM to 40 nM), and combined with 40 μM of compound 1 in complex with Zn^2+ (triflate salt) dissolved in the same buffer on a 384 well flat bottom black plate. The mixture was incubated for 20 minutes and fluorescence emission intensity at 476 nm (10-20 nm bandwidth) was measured using a Tecan M1000 microplate reader, upon excitation at 350 nm (5 nm bandwidth) at 400 Hz. The different conditions tested were assessed based on the ratios of signal intensity of positive to negative control analytes and signal intensity in general.
Peptides containing two phosphotyrosine residues, spaced by 2-5 alanine residues, were titrated into 40 μM solution of compound 1 in complex with Zn^2+ (triflate salt) (pH 7.5 50 mM HEPES, 10% propylene, 25 mM NaCl) from 80 μM to 40 nM (FIG. 16). Y-axis is Δ Fluorescence Intensity as defined by the formula in example 2.
Using the same methods as described in Example 6, Zn^2+ (triflate salt) complexes of compounds 1, compound 9, compound 15, compound 14 were tested in pH 7.5, 50 mM HEPES, 25 mM NaCl, 10% propylene glycol.
Using the same methods as described in Example 6, Zn^2+ (triflate salt) complexes of compound 1 and compound 12 were tested in pH 7.5, 50 mM HEPES, 5% DMSO.

[4] = test system: proximally phosphorylated proteins (α-casein, β-casein and D-α-casein); test: In-solution detection of proteins; format: binding, Bos taurus; details: pH 7.5, 50 mM HEPES
Description: Non-phosphorylated (BSA and lysozyme) and distally phosphorylated negative control proteins (ovalbumin) were used in detection methods for in-solution, on gel and on blot applications. Dephosphorylated α-casein (D-α-casein), β-casein and α-casein served as proximally phosphorylated positive controls (see Table 2). The phosphosites presented in Table 2 were obtained from the PhosphoSitePlus database or a UniProt database.
as §3, with “proteins” for “peptides”, “3. Proteins” for “1. For the screens, analytes (peptides)”, “a” for “a specific”, “general. Among the parameters assessed in this study and using these specific control proteins, the following conditions were selected for proteins studies: pH 5.5 50 mM NaOAc, 50 mM NaCl, 5% DMSO (see FIG. 27). […] Depending on the number of proximally di-phosphorylated sites, lower detection limits could be achieved by using lower concentration of a sensor.” for “general.”
Using same methods as described in Example 1.1c, Zn^2+ (triflate salt) complexes of compounds 1 (top left), compound 9 (top right), compound 15 (middle left), and compound 14 (middle right) were tested in pH 7.5, 50 mM HEPES, 75 mM NaCl, 20% DMSO (see FIG. 28).
Using same methods as described in Example 14, 40 and 20 μM of Zn^2+ (triflate salt) complexes of compound 1 (top) and compound 12 (bottom) (FIG. 29), were tested in pH 7.5, 50 mM HEPES, 5% DMSO.
Using same methods as described above, 60, 40, 20 and 10 μM of Zn^2+ (triflate salt) complexed with compound 12 (FIG. 30), were titrated with 80-0.04 μM of proteins in pH 7.5, 50 mM HEPES, 5% DMSO.

MRC-9 cells = test: Fixed cell imaging; format: cell-based, human
Description: MRC-9 cells were plated on an 8-chamber tissue culture treated glass slide (BD Falcon; 40,000 cells/chamber) and cultured for two days at 37° C., 5% CO2. Media was removed and cells were incubated with 200 μL of 3.4% formaldehyde solution in 1×PBS for 10 min. Cells were washed 3×3 min with PBS and stored in PBS at 4° C. until staining. Cells were washed 3× with 50 mM HEPES and incubated in 40 μM solution of compound 1 in complex with Zn^2+ (triflate salt) dissolved in 50 mM HEPES, 75 mM NaCl, 10% DMSO for 1 h. Cells were rinsed 2× with 50 mM HEPES and mounted with a mounting solution and a cover slip.

fixed cells = test: Fixed cell imaging: monitoring decrease in proximal phosphorylation; format: cell-based; details: 22 nM, pre-treatment prior to cell fixation
Description: (3 h prior to fixation, media was removed and 22 nM of Staurosporine (BioShop, cat. STA001) solution in fresh media was added and incubated at 37° C., 5% CO2 for 3 h).

[5] = 100 mM NaOAc pH 4.5, 150 mM NaCl, 20% propylene glycol, destain 50 mM NaOAc, pH 4.0, 20% acetonitrile

IL-6: a JAK2 pathway-inducing agent
fluorescent signal from compound 1-Zn^2+ in pre-treated cells [1]: significantly increased

O=C(O)CN(CC(=O)O)c1ccccc1OCCOc1cc(NC(=O)CCCc2ccc3ccc4cccc5ccc2c3c45)ccc1N(CC(=O)O)CC(=O)O [compound 2, 2,2′-((2-(2-(2-(bis(carboxymethyl)amino)-5-(4-(pyren-1-yl)butanamido)phenoxy)ethoxy)phenyl)azanediyl)diacetic acid]
GaCl3 concentration at which saturation is observed ([2]; pH 4.5 (50 mM NaOAc)): 10 µM
saturation at higher concentration of GaCl3 ([2]; pH 7.5 (HEPES)): saturation was not observed
selectivity for β-casein after 2 h destaining (β-casein; 80 μM compound, 1:1 GaCl3, stained 1 h): did not result in the selective staining
β-casein over distally phosphorylated ovalbumin (β-casein; 80 μM compound, 1:1 GaCl3, stained 1 h, 40 h destaining, 1 μg per protein): 6.7 fold
selectivity for β-casein with more than 1:1 equivalent of compound:GaCl3 (β-casein; 50 mM NaOAc pH 4.5, 50 mM NaCl, 10% DMSO, 160 or 240 μM GaCl3): did not result in good selectivity
selective staining for β-casein, no destaining (β-casein; 100 mM NaOAc pH 4.5, 150 mM NaCl, 20% propylene glycol, 1:1 and 1:1.5 compound:GaCl3, stained 1.5 h): did not result in selective staining
staining of β-casein band following 16 h destain (β-casein; [5]): most prominently stained band
β-casein signal over distally phosphorylated ovalbumin following 16 h destain (β-casein; [5]): 10 fold

c1cc2ccc3ccc(CN4CCNCCNCCNCC4)c4ccc(c1)c2c34 [compound 1, 1-(Pyren-1-methyl)-1,4,7,10-tetraazacyclododecane]
signal with mono-phosphorylated or non-phosphorylated peptides ([3]; Zn^2+ triflate complex, 40 μM): did not produce a significant signal
efficiency at detecting the proximally phosphorylated proteins ([4]; Zn^2+ (triflate salt) complexes, 75 mM NaCl, 20% DMSO): comparable efficiency
intracellular fluorescence, metallated vs non-metallated (MRC-9 cells): only compound 1-Zn^2+ complex, is capable of inducing intracellular fluorescence

CN[C@@H]1C[C@H]2O[C@@](C)([C@@H]1OC)n1c3ccccc3c3c4c(c5c6ccccc6n2c5c31)C(=O)NC4 [staurosporine]
fluorescence intensity of compound 1-Zn^2+ complex compared to untreated control (fixed cells): time-dependent decrease

O=C(O)CN1CCN(CCCCc2ccc3ccc4cccc5ccc2c3c45)CCN(CC(=O)O)CCN(CC(=O)O)CC1 [compound 3, 2,2′,2″-(10-(4-(pyren-1-yl)butyl)-1,4,7,10-tetraazacyclododecane-1,4,7-triyl)triacetic acid]
concentrations at which Ga^3+-compound complex formation was observed ([2]; pH 5.5 and 4.5, 50 mM NaOAc): single-digit

c1cc2ccc3ccc(CN4CCCNCCNCCCNCC4)c4ccc(c1)c2c34 [compound 12, 1-(pyren-1-ylmethyl)-1,4,8,11-tetraazacyclotetradecane]
detecting proximally phosphorylated peptides ([3]; Zn^2+ (triflate salt) complex, pH 7.5, 50 mM HEPES, 5% DMSO): potent
detection limit on lowering the concentration of the sensor ([4]; 60, 40, 20 and 10 μM Zn^2+ complex, 5% DMSO): improved
